The results in this text go back to patent US12064445B2, “Cytarabine conjugates for cancer therapy” (Biosight Ltd., priority 2015, dated 2024).

A short description of series [1]: Maximal tolerated dose, repeated dose IP (7 days) in mice. The class given is in vivo. The conditions noted are these: for MTD at 7 days: TRC, mouse, in vivo. The source says:
All mice were inspected daily during drug administration and recovery period. Clinical evaluation included mobility observations, food and water consumption. […] Hematology and biochemical blood tests were shown normal at the end of the experiment.

Series [2] deals with Molt-4 cells. The series is described as follows: Human leukemia hollow fiber model transplanted in nude mice (Molt-4). Format: in vivo. The conditions noted are these: 7 consecutive days. The procedure:
(§1) Next, the efficacy of Astarabine® in vivo was studied on a human leukemia (Molt-4 and CCRF-CEM cells) hollow fiber model transplanted in nude mice. Astarabine® was injected at doses of 6.25 mg/mouse/day and 25 mg/mouse/day intraperitoneally (IP), daily, for 7 consecutive days; cytarabine was injected at a dose of 1.5 mg/mouse/day. Leukemia cell growth was measured using the MTT assay as described in Example 1 herein above.

For series [3], the system named is CCRF-CEM cells. In words: Human leukemia hollow fiber model transplanted in nude mice (CCRF-CEM). Format: in vivo. The conditions noted are these: 7 consecutive days. The procedure: as §1
The conditions of series [4]: ICR, mouse, in vivo. The procedure: In vivo tolerability/toxicology studies were used to determine the MTD of a single dose of Astarabine® in mice (FIG. 1A) or of 14 daily repeated doses of Astarabine® in mice (FIG. 1B). The MTD was evaluated for intravenous (IV) or intraperitoneal (IP) administration.
Series [5] can be described thus: Maximal tolerated dose, single dose IV in mice. The class given is in vivo. The procedure:
IRC mice were injected once IV with Astarabine® in a dose ranging from 1000 to 8000 mg/kg. The mice were evaluated for 14 days. […] The following parameters: clinical signs, body weight, food consumption and blood analysis, were normal for both male and female mice at this dose, i.e., 8000 mg/kg. […] It is therefore concluded that 8000 mg/kg is the MTD of Astarabine® in mice for a single IV administration.

Series [6] deals with NCIH727 (Human lung non small cell carcinoma). In words: MTT assay, IC50 in tumor cell lines. Format: cell-based. The following applies: NCI-H727, NCIH727, 72 hr. Here is the method:
(§2) The effect of Astarabine® on different cell lines was evaluated. Briefly, various cell lines were obtained from ATCC or ECACC. Hematological cells were grown in RPMI medium containing 10-20% FBS and 1% glutamine. Solid tumor cells were grown in DMEM medium containing 10-20% FBS and 1% glutamine. Cells were seeded into 96-well plates, 50,000 cells/ml, 0.2 ml per well. Test substances were diluted in saline or PBS and added in final concentrations of 0.1 nM to 10 μM, in a volume of 20 μl. The study was conducted in triplicates, PBS was used as control. Plates were incubated for 72 hr at 37° C., 5% CO2. At the end of the exposure period, a MTT assay using the MTT reagent [3-(4,5-dimethylthiazol-2-yl)-2,5-diphenyltetrazolium bromide] was performed. MTT was added to each well at a concentration of 5 mg/ml in a volume of 0.02 ml. Plates were incubated at 37° C. for 3 h. The plates were centrifuged at 3500 rpm for 5 minutes and the supernatant was aspired. The pellets which contained MTT crystals were each dissolved in 0.2 ml DMSO. Absorbance was determined using ELISA reader at a wavelength of 570 nm.

For series [7], the system named is K562 (Human chronic myelogenous leukemia). In words: MTT assay, IC50 in tumor cell lines. Format: cell-based. The following applies: K562, 72 hr. Here is the method: as §2
Series [8] can be described thus: Maximal tolerated dose, single dose IP in mice. The class given is in vivo. Here is the method: Ten weeks of age IRC mice were injected IP with a single dose of Astarabine®, ranging from 1428 to 8271 mg/kg (50 to 300 mg/mice, respectively). Clinical evaluation included mobility observations, food and water consumption. […] After 7 days, the mice were sampled for hematology and biochemistry and then subjected to necropsy.

Series [9] deals with human leukemia cell lines. In words: Astarabine metabolite assay in human leukemia cell lines. The class given is cell-based.
For series [10], the system named is RPMI8226 (Human myeloma). In words: MTT assay, IC50 in tumor cell lines. The class given is cell-based. The conditions noted are these: RPMI-8226, RPMI8226, 72 hr. The procedure:
as §2, with “Test substances were diluted in saline or PBS and added in final concentrations of 0.1 nM to 10 μM, in a volume of 20 μl.” left out

SMILES strings stand for the structures.

For the molecule `N[C@@H](CC(=O)Nc1ccn([C@@H]2O[C@H](CO)[C@@H](O)[C@@H]2O)c(=O)n1)C(=O)O` [Astarabine®], the Gross necropsy result in series [1] (IP 7 days, 156 to 781 mg/kg/day) is “no abnormal findings”. In series [1] (IP 7 days, 156 to 781 mg/kg/day, end of experiment), the “Hematology and biochemical blood tests” value is “normal”. Further, the MTD at 7 days in series [1] (781 mg/kg/day IP for 7 days, read-out: Accumulative dose at MTD) stood at 5470 mg/kg; in series [1] (IP for 7 days, read-out: MTD (maximal tolerated dose)) it was 781 mg/kg/day; in series [8] (IRC, mouse, in vivo, single dose IP), 8270 mg/kg. In addition, the entries for the “Inhibition of growth of Molt-4 cells” value in series [2] (6.25 mg/mouse/day IP) and in series [2] (25 mg/mouse/day IP) were 76.9% and 82.8%, respectively. Further, the “Inhibition of growth of CCRF-CEM cells” value in series [3] (6.25 mg/mouse/day IP) is on record as 71.9%; in [3] (25 mg/mouse/day IP), 72.0%. In addition, the “Reduction of toxicity in animals compared to the reported toxicity of cytarabine” value in [4] is 10-20 fold. For the same molecule, the MTD at 14 days in series [5] (both sexes, IRC, mouse, in vivo, single IV administration, evaluated for 14 days) was 8000 mg/kg. In addition, in [5] (single IV dose 8000 mg/kg), the Drug dependent death entry is given as “no drug dependent death”. For the same molecule, the results for the half-maximal inhibitory concentration (IC50) in series [6], in series [7] and in series [10] were 1300 to 2800 nM, 194 to 516 nM and 33400 to 144000 nM, respectively. For the same molecule, the “Blood samples (hematology and biochemistry)” value in [8] (single IP dose 8271 mg/kg, after 7 days of recovery) was “normal results”. Besides, the “Necropsy, tissues” value in series [8] (single IP dose 1428 to 8271 mg/kg, all mice) is given as “normal, with no macroscopic findings”. In addition, the “Metabolites detected in cells” value in series [9] is listed as “detected free cytarabine metabolites”.
